Reference: patent US9303016B2, “Derivatives of aza adamantane and uses thereof” (CONNEXIOS LIFE SCIENCES PVT. LTD., priority 2011, dated 2016)

Target: T1, human full length HSD11β1 (Homo sapiens, UniProt P28845)
T1 construct: transient expression of human full length HSD11β1 expression vector; host or cells: CHO cells, transient transfection
Test: In Vitro HSD11β1 Inhibition Assay
Format: cell-based
Details: CHO cells transiently expressing human HSD11β1; 200 nM cortisone+500 uM NADPH overnight; cortisone to cortisol by LC/MS-MS; read-out: 11βHSD1 (IC50)
Summary of the method: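 Whole-cell assay in CHO cells transiently transfected with full-length human HSD11β1, re-seeded 24 h after transfection. Cells incubated overnight with 200 nM cortisone plus 500 uM NADPH, with or without inhibitor. Cortisone-to-cortisol conversion measured by LC/MS-MS; IC50 (nM) from an 8-point log concentration-inhibition curve.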

T1 sequence (P28845 whole entry): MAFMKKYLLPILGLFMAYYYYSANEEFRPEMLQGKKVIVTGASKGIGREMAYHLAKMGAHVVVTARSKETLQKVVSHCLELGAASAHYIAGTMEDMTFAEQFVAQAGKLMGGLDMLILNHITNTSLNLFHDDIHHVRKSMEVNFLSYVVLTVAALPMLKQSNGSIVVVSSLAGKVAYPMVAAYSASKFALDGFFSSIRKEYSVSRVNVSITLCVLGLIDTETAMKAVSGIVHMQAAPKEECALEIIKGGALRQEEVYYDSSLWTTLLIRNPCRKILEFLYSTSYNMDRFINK

| Structure (SMILES) | IC50 |
| --- | --- |
| CC(CC(=O)N1C2CC3CC1CC(O)(C3)C2)c1nc2ccc(Cl)cc2[nH]1 (centres unmarked) [Compound 202, 3-(6-chloro-1H-benzimidazol-2-yl)-1-(5-hydroxy-2-azatricyclo[3.3.1.1^3,7]dec-2-yl)butan-1-one] | > 250 nM |
| CC(C)C(CC(=O)N1C2CC3CC1CC(O)(C3)C2)c1c[nH]c2ncccc12 (centres unmarked) [Compound 90, 1-(5-hydroxy-2-azatricyclo[3.3.1.1^3,7]dec-2-yl)-4-methyl-3-(1H-pyrrolo[2,3-b]pyridin-3-yl)pentan-1-one] | > 250 nM |
| CC(CC(=O)N1C2CC3CC1CC(C#N)(C3)C2)c1nc2c(Cl)cccc2s1 (centres unmarked) [Compound 123, 2-[3-(4-chloro-1,3-benzothiazol-2-yl)butanoyl]-2-azatricyclo[3.3.1.1^3,7]decane-5-carbonitrile] | > 250 nM |
| CC(CC(=O)N1C2CC3CC1CC(C(=O)O)(C3)C2)c1c[nH]c2ccccc12 (centres unmarked) [Example 61, 2-[3-(1H-indol-3-yl)butanoyl]-2-azatricyclo[3.3.1.1^3,7]decane-5-carboxylic acid] | > 250 nM |
| CC(CC(=O)N1C2CC3CC1CC(O)(C3)C2)c1nc2c(Cl)cccc2s1 (centres unmarked) [Compound 120, 3-(4-chloro-1,3-benzothiazol-2-yl)-1-(5-hydroxy-2-azatricyclo[3.3.1.1^3,7]dec-2-yl)butan-1-one] | > 250 nM |
| CC(CC(=O)N1C2CC3CC1CC(O)(C3)C2)c1nc2ccc(Cl)cc2s1 (single isomer, unassigned) [Compound 194, 3-(6-chloro-1,3-benzothiazol-2-yl)-1-(5-hydroxy-2-azatricyclo[3.3.1.1^3,7]dec-2-yl)butan-1-one] | < 100 nM |
| O=C(CC(c1cccs1)c1c[nH]c2cccc(F)c12)N1C2CC3CC1CC(O)(C3)C2 (centres unmarked) [Compound 127, 3-(4-fluoro-1H-indol-3-yl)-1-(5-hydroxy-2-azatricyclo[3.3.1.1^3,7]dec-2-yl)-3-(thiophen-2-yl)propan-1-one] | < 100 nM |
| O=C(CC(c1ccc(F)cc1)c1c[nH]c2cccc(F)c12)N1C2CC3CC1CC(O)(C3)C2 (centres unmarked) [Compound 99, 3-(4-fluoro-1H-indol-3-yl)-3-(4-fluorophenyl)-1-(5-hydroxy-2-azatricyclo[3.3.1.1^3,7]dec-2-yl)propan-1-one] | < 100 nM |
| CC(CC(=O)N1C2CC3CC(C2)C(O)C1C3)c1c[nH]c2ccccc12 (centres unmarked) [Example 18, 1-(4-hydroxy-2-azatricyclo[3.3.1.1^3,7]dec-2-yl)-3-(1H-indol-3-yl)butan-1-one] | 100 to 150 nM |
| Cc1cccc2c1nnn2C(CC(=O)N1C2CC3CC1CC(O)(C3)C2)C(C)C (centres unmarked) [Compound 131, 1-(5-hydroxy-2-azatricyclo[3.3.1.1^3,7]dec-2-yl)-4-methyl-3-(4-methyl-1H-benzotriazol-1-yl)pentan-1-one] | > 250 nM |
| CC(CC(=O)N1C2CC3CC1CC(C(=O)NCc1ccc(C(=O)O)cc1)(C3)C2)c1c[nH]c2cccc(C3CC3)c12 (centres unmarked) [Example 63, 4-{[({2-[3-(4-cyclopropyl-1H-indol-3-yl)butanoyl]-2-azatricyclo[3.3.1.1^3,7]dec-5-yl}carbonyl)amino]methyl}benzoic acid] | > 250 nM |
| CC(CC(=O)N1C2CC3CC1CC(O)(C3)C2)c1c[nH]c2ncc(Cl)c(Cl)c12 (centres unmarked) [Compound 197, 3-(4,5-dichloro-1H-pyrrolo[2,3-b]pyridin-3-yl)-1-(5-hydroxy-2-azatricyclo[3.3.1.1^3,7]dec-2-yl)butan-1-one] | < 100 nM |
| O=C(CCc1c[nH]c2cc(F)ccc12)N1C2CC3CC(C2)CC1C3 [Example 5, 1-(2-azatricyclo[3.3.1.1^3,7]dec-2-yl)-3-(6-fluoro-1H-indol-3-yl)propan-1-one] | 200 to 250 nM |
| CC(CC(=O)N1C2CC3CC1CC(C#N)(C3)C2)c1nc2c(Cl)cccc2s1 (single isomer, unassigned) [Compound 124, 2-[3-(4-chloro-1,3-benzothiazol-2-yl)butanoyl]-2-azatricyclo[3.3.1.1^3,7]decane-5-carbonitrile] | > 250 nM |
| O=C(O)CC12CC3CC(C1)N(C(=O)CC(c1cccs1)c1c[nH]c4cccc(F)c14)C(C3)C2 (centres unmarked) [Compound 159, {2-[3-(4-fluoro-1H-indol-3-yl)-3-(thiophen-2-yl)propanoyl]-2-azatricyclo[3.3.1.1^7]dec-5-yl}acetic acid] | 100 to 150 nM |
| O=C(CC(c1ccccc1)c1c[nH]c2cccc(F)c12)N1C2CC3CC1CC(O)(C3)C2 (centres unmarked) [Compound 83, 3-(4-fluoro-1H-indol-3-yl)-1-(5-hydroxy-2-azatricyclo[3.3.1.1^3,7]dec-2-yl)-3-phenylpropan-1-one] | < 100 nM |
| CC(CC(=O)N1C2CC3CC1CC(C#N)(C3)C2)c1c[nH]c2nccc(C3CC3)c12 (centres unmarked) [Compound 136, 2-[3-(4-cyclopropyl-1H-pyrrolo[2,3-b]pyridin-3-yl)butanoyl]-2-azatricyclo[3.3.1.1^3,7]decane-5-carbonitrile] | < 100 nM |
| CC(C)C(CC(=O)N1C2CC3CC(C2)C(O)C1C3)c1c[nH]c2ccccc12 (centres unmarked) [Example 19, 1-(4-hydroxy-2-azatricyclo[3.3.1.1^3,7]dec-2-yl)-3-(1H-indol-3-yl)-4-methylpentan-1-one] | 200 to 250 nM |
| O=C(CC(c1ccccc1)c1c[nH]c2ccccc12)N1C2CC3CC1CC(O)(C3)C2 (centres unmarked) [Example 67, 1-(5-hydroxy-2-azatricyclo[3.3.1.1^3,7]dec-2-yl)-3-(1H-indol-3-yl)-3-phenylpropan-1-one] | 100 to 150 nM |

More lines, now with the values ahead:

| IC50 | Structure (SMILES) |
| --- | --- |
| > 250 nM | CC(CC(=O)N1C2CC3CC1CC(C(C)C(=O)O)(C3)C2)c1c[nH]c2cccc(Cl)c12 (centres unmarked) [Compound 186, 2-{2-[3-(4-chloro-1H-indol-3-yl)butanoyl]-2-azatricyclo[3.3.1.1^3,7]dec-5-yl}propanoic acid] |
| < 100 nM | Cc1ccc2[nH]cc(C(C)CC(=O)N3C4CC5CC3CC(O)(C5)C4)c2c1C (single isomer, unassigned) [Compound 169, 3-(4,5-dimethyl-1H-indol-3-yl)-1-(5-hydroxy-2-azatricyclo[3.3.1.1^3,7]dec-2-yl)butan-1-one] |
| < 100 nM | Cc1ccc2[nH]cc(C(C)CC(=O)N3C4CC5CC3CC(O)(C5)C4)c2c1Cl (centres unmarked) [Compound 166, 3-(4-chloro-5-methyl-1H-indol-3-yl)-1-(5-hydroxy-2-azatricyclo[3.3.1.1^3,7]dec-2-yl)butan-1-one] |
| > 250 nM | CC(CC(=O)N1C2CC3CC1CC(O)(C3)C2)c1cn(S(C)(=O)=O)c2cccc(Cl)c12 (centres unmarked) [Example 46, 3-[4-chloro-1-(methylsulfonyl)-1H-indol-3-yl]-1-(5-hydroxy-2-azatricyclo[3.3.1.1^3,7]dec-2-yl)butan-1-one] |
| > 250 nM | CC(CC(=O)N1C2CC3CC1CC(O)(C3)C2)c1c[nH]c2cccc(-c3cccs3)c12 (single isomer, unassigned) [Compound 189, 1-(5-hydroxy-2-azatricyclo[3.3.1.1^3,7]dec-2-yl)-3-[4-(thiophen-2-yl)-1H-indol-3-yl]butan-1-one] |
| 100 to 150 nM | CC(CC(=O)N1C2CC3CC1CC(O)(C3)C2)c1c[nH]c2cc(Cl)c(F)cc12 (centres unmarked) [Compound 133, 3-(6-chloro-5-fluoro-1H-indol-3-yl)-1-(5-hydroxy-2-azatricyclo[3.3.1.1^3,7]dec-2-yl)butan-1-one] |
| 100 to 150 nM | COC12CC3CC(C1)N(C(=O)CC(C)c1c[nH]c4cccc(F)c14)C(C3)C2 (centres unmarked) [Example 29, 3-(4-fluoro-1H-indol-3-yl)-1-(5-methoxy-2-azatricyclo[3.3.1.1^3,7]dec-2-yl)butan-1-one] |
| < 100 nM | Cc1cccc2[nH]cc(C(C)CC(=O)N3C4CC5CC3CC(F)(C5)C4)c12 (centres unmarked) [Compound 104, 1-(5-fluoro-2-azatricyclo[3.3.1.1^3,7]dec-2-yl)-3-(4-methyl-1H-indol-3-yl)butan-1-one] |
| 200 to 250 nM | CC(CC(=O)N1C2CC3CC1CC(O)(C3)C2)c1c[nH]c2cccc(F)c12 (single isomer, unassigned) [Example 28, 3-(4-fluoro-1H-indol-3-yl)-1-(5-hydroxy-2-azatricyclo[3.3.1.1^3,7]dec-2-yl)butan-1-one] |
| > 250 nM | CC(CC(=O)N1C2CC3CC1CC(O)(C3)C2)c1c[nH]c2cccc(F)c12 (single isomer, unassigned) [Example 27, 3-(4-fluoro-1H-indol-3-yl)-1-(5-hydroxy-2-azatricyclo[3.3.1.1^3,7]dec-2-yl)butan-1-one] |
| > 250 nM | CC(CC(=O)N1C2CC3CC1CC(O)(C3)C2)c1c[nH]c2cccc(N3CCCCC3)c12 (centres unmarked) [Compound 180, 1-(5-hydroxy-2-azatricyclo[3.3.1.1^3,7]dec-2-yl)-3-[4-(piperidin-1-yl)-1H-indol-3-yl]butan-1-one] |
| < 100 nM | CC(CC(=O)N1C2CC3CC1CC(O)(C3)C2)c1c[nH]c2cc(F)ccc12 (single isomer, unassigned) [Compound 98, 3-(6-fluoro-1H-indol-3-yl)-1-(5-hydroxy-2-azatricyclo[3.3.1.1^3,7]dec-2-yl)butan-1-one] |
| 100 to 150 nM | O=C(CC(c1c[nH]c2cccc(F)c12)C1CC1)N1C2CC3CC1CC(O)(C3)C2 (centres unmarked) [Compound 95, 3-cyclopropyl-3-(4-fluoro-1H-indol-3-yl)-1-(5-hydroxy-2-azatricyclo[3.3.1.1^3,7]dec-2-yl)propan-1-one] |
| > 250 nM | Cc1cccc2[nH]cc(C(C)CC(=O)N3C4CC5CC3CC(C(=O)O)(C5)C4)c12 (centres unmarked) [Example 57, 2-[3-(4-methyl-1H-indol-3-yl)butanoyl]-2-azatricyclo[3.3.1.1^3,7]decane-5-carboxylic acid] |
| > 250 nM | CC(C)C(CC(=O)N1C2CC3CC1CC(O)(C3)C2)c1c[nH]c2cccc(F)c12 (centres unmarked) [Example 25, 3-(4-fluoro-1H-indol-3-yl)-1-(5-hydroxy-2-azatricyclo[3.3.1.1^3,7]dec-2-yl)-4-methylpentan-1-one] |
| 200 to 250 nM | COc1ccc2[nH]cc(C(C)CC(=O)N3C4CC5CC3CC(O)(C5)C4)c2c1C1CC1 (centres unmarked) [Compound 171, 3-(4-cyclopropyl-5-methoxy-1H-indol-3-yl)-1-(5-hydroxy-2-azatricyclo[3.3.1.1^3,7]dec-2-yl)butan-1-one] |
